According to ChEMBL document CHEMBL2157998, “Synthesis and biological evaluation of new phenothiazine derivatives bearing a pyrazole unit as protein farnesyltransferase inhibitors” (Bioorg Med Chem Lett, 2012):
Activity calls are given as the source filed them. The calls are words filed in the database; no cut-off is given here.

Columns and labels:
[1] = target: T1, Protein farnesyltransferase (Homo sapiens, UniProt P49354+P49356); assay: Inhibition of recombinant human FTase using dansyl-GCVLS as substrate at 100 uM after 15 mins by fluorimetric analysis; type: protein-complex assay
[2] = target: T1, Protein farnesyltransferase; assay: Inhibition of recombinant human FTase using dansyl-GCVLS as substrate after 15 mins by fluorimetric analysis; type: protein-complex assay
HOP-92 = assay: Growth inhibition of human HOP92 cells at 10 uM after 48 hrs by single dose SRB assay; type: functional
SNB-19 = assay: Growth inhibition of human SNB19 cells at 10 uM after 48 hrs by single dose SRB assay; type: functional
NCI-H226 = assay: Growth inhibition of human NCI-H226 cells at 10 uM after 48 hrs by single dose SRB assay; type: functional
SF-295 = assay: Growth inhibition of human SF295 cells at 10 uM after 48 hrs by single dose SRB assay; type: functional
HT-29 = assay: Growth inhibition of human HT-29 cells at 10 uM after 48 hrs by single dose SRB assay; type: functional
OVCAR-8 = assay: Growth inhibition of human OVCAR8 cells at 10 uM after 48 hrs by single dose SRB assay; type: functional
HCT166 = assay: (§1) Growth inhibition of human […] cells at 10 uM after 48 hrs by single dose SRB assay; type: functional
RPMI-8226 = assay: Growth inhibition of human RPMI8226 cells at 10 uM after 48 hrs by single dose SRB assay; type: functional
NCI-H522 = assay: Growth inhibition of human NCI-H522 cells at 10 uM after 48 hrs by single dose SRB assay; type: functional; conditions: NCI-H522, 48 h, read-out: GI
PC-3 = assay: Growth inhibition of human PC3 cells at 10 uM after 48 hrs by single dose SRB assay; type: functional; conditions: PC-3, 48 h, read-out: GI
CAKI-1 = assay: Growth inhibition of human Caki1 cells at 10 uM after 48 hrs by single dose SRB assay; type: functional; conditions: CAKI-1, 48 h, read-out: GI
ACHN = assay: Growth inhibition of human ACHN cells at 10 uM after 48 hrs by single dose SRB assay; type: functional
U-251 = assay: Growth inhibition of human U251 cells at 10 uM after 48 hrs by single dose SRB assay; type: functional
MOLT-4 = assay: Growth inhibition of human MOLT4 cells at 10 uM after 48 hrs by single dose SRB assay; type: functional; conditions: MOLT-4, 48 h, read-out: GI
LOX IMVI = assay: Growth inhibition of human LOXIMVI cells at 10 uM after 48 hrs by single dose SRB assay; type: functional
SN12C = assay: Growth inhibition of human SN12C cells at 10 uM after 48 hrs by single dose SRB assay; type: functional
NCI/ADR-RES = assay: Growth inhibition of human NCI/ADR-RES cells at 10 uM after 48 hrs by single dose SRB assay; type: functional
EKVX = assay: Growth inhibition of human EKVX cells at 10 uM after 48 hrs by single dose SRB assay; type: functional
CCRF-CEM = assay: Growth inhibition of human CCRF-CEM cells at 10 uM after 48 hrs by single dose SRB assay; type: functional
HL-60(TB) = assay: Growth inhibition of human HL-60(TB) cells at 10 uM after 48 hrs by single dose SRB assay; type: functional
MDA-MB-231 = assay: Growth inhibition of human MDA-MB-231 cells at 10 uM after 48 hrs by single dose SRB assay; type: functional
UO-31 = assay: Growth inhibition of human UO31 cells at 10 uM after 48 hrs by single dose SRB assay; type: functional; conditions: UO-31, 48 h, read-out: GI
MDA-MB-468 = assay: Growth inhibition of human MDA-MB-468 cells at 10 uM after 48 hrs by single dose SRB assay; type: functional
OVCAR-3 = assay: Growth inhibition of human OVCAR3 cells at 10 uM after 48 hrs by single dose SRB assay; type: functional
HCT-15 = assay: Growth inhibition of human HCT15 cells at 10 uM after 48 hrs by single dose SRB assay; type: functional; conditions: HCT-15, 48 h, read-out: GI
A498 = assay: Growth inhibition of human A498 cells at 10 uM after 48 hrs by single dose SRB assay; type: functional; conditions: A498, 48 h, read-out: GI
SK-MEL-5 = assay: Growth inhibition of human SK-MEL-5 cells at 10 uM after 48 hrs by single dose SRB assay; type: functional
UACC-62 = assay: Growth inhibition of human UACC62 cells at 10 uM after 48 hrs by single dose SRB assay; type: functional; conditions: UACC-62, 48 h, read-out: GI
SW-620 = assay: Growth inhibition of human SW620 cells at 10 uM after 48 hrs by single dose SRB assay; type: functional
[3] = as §1; type: functional; conditions: read-out: GI

## Cc1c2c(nn1C(=O)CCN1c3ccccc3Sc3ccccc31)CCCC2=O
[1]
  inhibition: 19.5%

## Cc1c2c(nn1C(=O)CN1c3ccccc3Sc3ccccc31)CCCC2=O
[1]
  inhibition: 0%

## C/C(=N\NC(=O)CCN1c2ccccc2Sc2ccccc21)C1=C(O)c2ccccc2C1=O
[2]
  IC50: 3.73 µM
[1]
  inhibition: 95.5%

## CCOC(=O)c1cnn(CC(=O)N2c3ccccc3Sc3ccccc32)c1N
HOP-92
  growth inhibition (GI): inactive
SNB-19
  growth inhibition (GI): inactive
NCI-H226; NCI-H226, 48 h, read-out: GI
  inhibition of growth at 10 µM: 8.1%
SF-295; SF-295, 48 h, read-out: GI
  inhibition of growth at 10 µM: 6.7%
HT-29; HT-29, 48 h, read-out: GI
  inhibition of growth at 10 µM: 13.2%
OVCAR-8
  growth inhibition (GI): inactive
HCT166
  growth inhibition (GI): inactive
RPMI-8226
  growth inhibition (GI): inactive
NCI-H522
  inhibition of growth at 10 µM: 31.9%
PC-3
  inhibition of growth at 10 µM: 21.3%
CAKI-1
  inhibition of growth at 10 µM: 16%
[1]
  inhibition: 24.8%
ACHN
  growth inhibition (GI): inactive
U-251
  growth inhibition (GI): inactive
MOLT-4
  inhibition of growth at 10 µM: 7.6%
LOX IMVI
  growth inhibition (GI): inactive
SN12C
  growth inhibition (GI): inactive
NCI/ADR-RES
  growth inhibition (GI): inactive
EKVX; read-out: GI
  inhibition of growth at 10 µM: 5.3%
CCRF-CEM
  growth inhibition (GI): inactive
HL-60(TB); HL-60, 48 h, read-out: GI
  inhibition of growth at 10 µM: 83.2%
MDA-MB-231
  growth inhibition (GI): inactive
UO-31
  inhibition of growth at 10 µM: 13.3%
MDA-MB-468; MDA-MB-468, 48 h, read-out: GI
  inhibition of growth at 10 µM: 15.3%
OVCAR-3
  growth inhibition (GI): inactive
HCT-15
  inhibition of growth at 10 µM: 25.4%
A498
  inhibition of growth at 10 µM: 11.8%
SK-MEL-5; SK-MEL-5, 48 h, read-out: GI
  inhibition of growth at 10 µM: 6.9%
UACC-62
  inhibition of growth at 10 µM: 6.3%
SW-620
  growth inhibition (GI): inactive

## Cc1c2c(nn1CC(=O)N1c3ccccc3Sc3ccccc31)CCCC2=O
[1]
  inhibition: 46.6%

## Cc1cc(C)n(CC(=O)N2c3ccccc3Sc3ccccc32)n1
[1]
  inhibition: 22.4%

## Cc1c2c(nn1CC(=O)N1c3ccccc3Sc3ccccc31)CCCC2
SNB-19
  growth inhibition (GI): inactive
NCI-H226
  growth inhibition (GI): inactive
SF-295
  growth inhibition (GI): inactive
HT-29
  growth inhibition (GI): inactive
OVCAR-8
  growth inhibition (GI): inactive
[3]
  inhibition of growth at 10 µM: 8.4%
RPMI-8226; RPMI-8226, 48 h, read-out: GI
  inhibition of growth at 10 µM: 16.2%
NCI-H522
  inhibition of growth at 10 µM: 15.2%
CAKI-1
  inhibition of growth at 10 µM: 8.1%
[1]
  inhibition: 0%
ACHN
  growth inhibition (GI): inactive
U-251; U-251, 48 h, read-out: GI
  inhibition of growth at 10 µM: 10.2%
MOLT-4
  inhibition of growth at 10 µM: 20.1%
LOX IMVI
  growth inhibition (GI): inactive
SN12C; read-out: GI
  inhibition of growth at 10 µM: 5.6%
NCI/ADR-RES; read-out: GI
  inhibition of growth at 10 µM: 6.2%
EKVX
  growth inhibition (GI): inactive
CCRF-CEM; read-out: GI
  inhibition of growth at 10 µM: 6.5%
HL-60(TB)
  growth inhibition (GI): inactive
MDA-MB-231
  growth inhibition (GI): inactive
UO-31
  inhibition of growth at 10 µM: 10%
MDA-MB-468
  growth inhibition (GI): inactive
OVCAR-3
  growth inhibition (GI): inactive
HCT-15
  inhibition of growth at 10 µM: 8%
SK-MEL-5
  growth inhibition (GI): inactive
UACC-62
  inhibition of growth at 10 µM: 13.2%
SW-620
  growth inhibition (GI): inactive

## Cc1c2c(nn1C(=O)CN1c3ccccc3Sc3ccccc31)CCCC2
[1]
  inhibition: 0%

## CCOC(=O)c1cc(-c2ccccc2)nn1CC(=O)N1c2ccccc2Sc2ccccc21
[1]
  inhibition: 0%
